Measurements published in patent US20050054629A1, “Compounds and methods of treating cell proliferative diseases” (priority 2002, published 2005).

Key:
[1] = tested on: MCF-7 breast carcinoma; experiment: Cytotoxicity assay (MTT), 6 days; type: cell-based; conditions: Homo sapiens, MCF7, 144 h, 6 days of treatment, read-out: Toxicity 6d (IC 50, μM) MCF7
From the text: (§1) Four human tumoral cell lines, namely HCT116 colon adenocarcinoma, H460 lung carcinoma, MCF-7 and MDA-MB-231 breast carcinoma cell lines, and three immortalized but non tumorigenic cell lines, namely NIH3T3 mouse fibroblasts and human breast-derived MCF10-A and MRC-5 were purchased at ATCC and cultured according to their recommendations. In order to determine the cytotoxicity associated with one compound, a microculture tetrazolium assay (MTT), as described by Carmichael et al (Cancer Res, 1996) with modifications, was used. Briefly, 5.10^3 or 2.10^4 cells were seeded per well in 24-well plates 24 hours before drug addition. Cells were treated with 0, 1, 10, 17.5, 25 and 50 μM of compound solubilized in DMSO, adjusting the total volume of DMSO (Dimethylsulfoxide) to 1%. Forty-eight hours or 6 days after treatment, the medium was replaced by PBS containing 0.5 mg/ml MTT (Sigma) and cells were incubated for 3 more hours at 37° C. before solubilization of formazan crystals in 100% DMSO. Absorbance was measured using a spectrophotometer at a wavelength of 550 nm. Cell surviving fraction and 50% inhibitory concentration were calculated. All assays were performed in triplicate.

[2] = tested on: MDA-MB-231 breast carcinoma; experiment: Cytotoxicity assay (MTT), 6 days; type: cell-based; conditions: Homo sapiens, MDA-MB-231, 144 h, 6 days of treatment, read-out: Toxicity 6d (IC 50, μM) MDA231
From the text: as §1

[3] = tested on: H460 lung carcinoma; experiment: Cytotoxicity assay (MTT), 6 days; type: cell-based; conditions: Homo sapiens, NCI-H460, 144 h, 6 days of treatment, read-out: Toxicity 6d (IC 50, μM) H460
From the text: as §1

[4] = tested on: HCT116 colon adenocarcinoma; experiment: Cytotoxicity assay (MTT), 6 days; type: cell-based, human; conditions: Homo sapiens, HCT-116, 144 h, 6 days of treatment, read-out: Toxicity 6d (IC 50, μM) HCT116
From the text: as §1

[5] = tested on: MDA-MB-231 cells; experiment: Matrigel invasion assay (Boyden chamber); type: cell-based, human; conditions: MDA-MB-231, Boyden chamber, matrigel
Method: Chemoinvasion assay was performed in Boyden chamber as described by Albini et al (Cancer Res, 1987) with some modifications. Polycarbonate membranes with 8 μm pores were coated with matrigel (125 μg/cm^2) at room temperature for 48 h. Two hours before experiments, the matrix was […] with serum-free medium containing 0.1% BSA.
One day after seeding, 10^6 MDA-MB-231 cells were treated overnight with different concentrations of compounds (1, 10, 17.5, 25 and 50 μM). Cells were collected with Versene (Invitrogen), counted with trypan blue exclusion, rinsed twice in serum-free medium containing 0.1% BSA and resuspended in serum-free medium containing 0.1% BSA plus the appropriate concentration of compound. 10^5 treated cells were placed in the upper chamber. Medium containing 10% of FBS plus the appropriate concentration of compound was placed in the lower chamber as a chemoattractant. The Boyden chamber was incubated 6 hours at 37° C. before the cells were fixed and stained with Diff-Quick (Dade-Berhing). Cells on the upper part of the filters were removed using a cotton swab. Cells on the underside of the filters were visualised and counted under light microscope.

[6] = tested on: cell architecture; experiment: Cell architecture modification, phase contrast; type: cell-based; parameters: key: −: no effect of the compound was observed; +: an effect of the compound was observed
[7] = tested on: NIH3T3 mouse fibroblasts; experiment: Cytotoxicity assay (MTT), 6 days; type: cell-based; conditions: NIH3T3, 144 h, 6 days of treatment, read-out: Toxicity 6d (IC 50, μM) NIH3T3
From the text: as §1

Structure (SMILES)	melting point	IC50 [1] [µM]	IC50 [2] [µM]	IC50 [3] [µM]	IC50 [4] [µM]	other results
C/C=C/c1oc(CO)cc(=O)c1OCCCCCOc1ccc(C#N)c(F)c1 [EHT 4112, (E)-2-Fluoro-4-[5-(6-hydroxymethyl-4-oxo-2-propenyl-4H-pyran-3-yloxy)-pentyloxy]-benzonitrile]	123 to 125 °C					
O=C(O)c1cc(=O)c(OCCCCCOc2ccc(Cl)c(Cl)c2)co1 [EH6600, 5-[5-(3,4-Dichlorophenyloxy)pentyloxy]-4-oxo-4H-pyran-2-carboxylic acid]		30	> 25	> 50	> 50	
C=CCc1cc(Cl)ccc1OCCCCCOc1coc(CO)cc1=O [EHT 5431, 5-[5-(2-Allyl-4-chloro-phenoxy)-pentyloxy]-2-hydroxymethyl-4H-pyran-4-one]	98 to 100 °C					
O=C(OCc1cc(=O)c(OCCCCCn2ccc3ccccc32)co1)C1CCCCC1 [EHT 2253, Cyclohexanecarboxylic acid 5-(5-indol-1-yl-pentyloxy)-4-oxo-4H-pyran-2-ylmethyl ester]	62 to 66 °C					
CCOc1ccccc1OCCCCCOc1coc(CO)cc1=O [EH18601, 5-[5-(2-Ethyloxyphenyloxy)pentyloxy]-2-(hydroxymethyl)-4H-pyran-4-one]		15	> 50	25	50	Invasion [5]: No effect; Cell architecture modification phase contrast [6]: −; IC50 [7]: > 50 µM
O=C(OCc1cc(=O)c(OCCCCCn2ccc3ccccc32)co1)c1ccc(Cl)cc1 [EHT 0078, 4-Chloro-benzoic acid 5-(5-indol-1-yl-pentyloxy)-4-oxo-4H-pyran-2-ylmethyl ester]	215 to 220 °C					
C=CCc1c(Cl)cc(Cl)cc1OCCCCCOc1coc(CO)cc1=O [EHT 6978, 5-[5-(2-Allyl-3,5-dichloro-phenoxy)-pentyloxy]-2-hydroxymethyl-4H-pyran-4-one]	59 to 61 °C					
CCCc1c(Cl)cc(Cl)cc1OCCCCCOc1coc(CO)cc1=O [EHT 2991]	77 to 79 °C					
C/C=C/c1oc(CO)cc(=O)c1OCCCCCOc1ccc(F)c(F)c1 [EHT 8307]	86 to 87 °C					
C/C=C/c1oc(C(=O)O)cc(=O)c1OCCCCCOc1ccccc1CCC [EH15301, (E)-2-(Propen-1-yl)-3-[5-(2-propylphenyloxy)pentyloxy]-4-oxo-4H-pyran-6-carboxylic acid]		> 50	> 50	> 50	> 50	IC50 [7]: > 50 µM
O=C(Nc1ccc(Cl)cc1)OCc1cc(=O)c(OCCCCCn2ccc3ccccc32)co1 [EHT 2232, (4-Chloro-phenyl)-carbamic acid 5-(5-indol-1-yl-pentyloxy)-4-oxo-4H-pyran-2-ylmethyl ester]	170 to 171 °C					
CCCc1c(OCCCCCOc2coc(C(=O)O)cc2=O)ccc(Cl)c1Cl [EH27900]		40	> 25	> 50	> 50	
O=C(O)c1cc(=O)c(OCCCCCOc2ccc(Cl)cc2)co1 [EH17600, 5-[5-(4-Chlorophenyloxy)pentyloxy]-4-oxo-4H-pyran-2-carboxylic acid]		17.5	> 25	> 50	> 50	
O=C(OCc1cc(=O)c(OCCCCCn2ccc3ccccc32)co1)c1ccccc1 [EHT 6517, Benzoic acid 5-(5-indol-1-yl-pentyloxy)-4-oxo-4H-pyran-2-ylmethyl ester]	71 to 73 °C					
CCCc1cc(Cl)ccc1OCCCCCOc1coc(CO)cc1=O [EHT 6152, 5-[5-(4-Chloro-2-propyl-phenoxy)pentyloxy]-2-hydroxymethyl-4H-pyran-4-one]	92 to 94 °C					
C/C=C/c1oc(CO)cc(=O)c1OCCCCCOc1cc(Cl)cc(Cl)c1CCC [EHT 9916, (E)-3-[5-(3,5-Dichloro-2-propyl-phenoxy)-pentyloxy]-6-hydroxymethyl-2-propenyl-4H-pyran-4-one]	91 to 93 °C					
C/C=C/c1oc(C(=O)O)cc(=O)c1OCCCCCOc1ccc(Cl)c(Cl)c1 [EH10501]		> 50	> 50	> 50	> 50	IC50 [7]: > 50 µM
O=C(O)c1cc(=O)c(OCCCCCOc2cccc(Cl)c2)co1 [EH15700, 5-[5-(3-Chlorophenyloxy)pentyloxy]-4-oxo-4H-pyran-2-carboxylic acid]		> 50	20	> 50	> 50	
O=C(OCc1cc(=O)c(OCCCCCn2ccc3ccccc32)co1)c1ccoc1 [EHT 4167, Furan-3-carboxylic acid 5-(5-indol-1-yl-pentyloxy)-4-oxo-4H-pyran-2-ylmethyl ester]	103 to 105 °C (dec.)					
CCNC(=O)OCc1cc(=O)c(OCCCCCn2ccc3ccccc32)co1 [EHT 1120, Ethyl-carbamic acid 5-(5-indol-1-yl-pentyloxy)-4-oxo-4H-pyran-2-ylmethyl ester]	81 to 83 °C					
CCCc1ccccc1OCCCCCOc1coc(C(=O)O)cc1=O [EH26900, 5-[5-(2-Propylphenyloxy)pentyloxy]-4-oxo-4H-pyran-2-carboxylic acid]		> 50	> 50	> 50	> 50	
C/C=C/c1oc(C(=O)O)cc(=O)c1OCCCCCOc1ccc(Cl)cc1 [EH17401, (E)-3-[5-(4-Chlorophenyloxy)pentyloxy]-2-(propen-1-yl)-4-oxo-4H-pyran-6-carboxylic acid]		> 50	> 50	> 50	> 50	IC50 [7]: > 50 µM
C/C=C/c1oc(CO)cc(=O)c1OCCCCCOc1cc(C(F)(F)F)cc(C(F)(F)F)c1 [EHT 5403, (E)-3-[5-(3,5-Bis-trifluoromethyl-phenoxy)-pentyloxy]-6-hydroxymethyl-2-propenyl-4H-pyran-4-one]	90 to 92 °C					
C/C=C/c1oc(C(=O)O)cc(=O)c1OCCCCCOc1ccc(Cl)c(Cl)c1CCC [EH22501, (E)-3-[5-(3,4-Dichloro-2-propylphenyloxy)pentyloxy]-2-(propen-1-yl)-4-oxo-4H-pyran-6-carboxylic acid]		> 50	50	> 50	> 50	IC50 [7]: > 50 µM
O=C(O)c1cc(=O)c(OCCCCOc2ccc(Cl)c(Cl)c2)co1 [EH20700, 5-[4-(3,4-Dichlorophenyloxy)butyloxy] oxo-4H-pyran-2-carboxylic acid]		> 50	> 50	> 50	> 50	
O=C(Nc1ccccc1)OCc1cc(=O)c(OCCCCCn2ccc3ccccc32)co1 [EHT 4902, Phenyl-carbamic acid 5-(5-indol-1-yl-pentyloxy)-4-oxo-4H-pyran-2-ylmethyl ester]	150 °C (dec.)					
C/C=C/c1oc(C(=O)O)cc(=O)c1OCCCCCOc1cccc(Cl)c1 [EH18401, (E)-3-[5-(3-Chlorophenyloxy)pentyloxy]-2-(propen-1-yl)-4-oxo-4H-pyran-6-carboxylic acid]		> 50	> 50	> 50	> 50	IC50 [7]: > 50 µM
